The values below come from US10799456B2, “Multiple drug lipid nanoparticle composition and related methods for extended drug levels in blood and lymph tissue” (priority 2015, dated 2020).

Data set [1] is described as follows: Drug incorporation/encapsulation (association) efficiency of multi-drug LNPs by dialysis. Format: physicochemical. On the procedure: The anti-HIV LNP formulations contain both unbound drug and drugs bound to lipid nanoparticles. […] Drugs were quantified by LC-MS/MS using acetonitrile precipitation. Encapsulation efficiency (EE) was calculated as follows: […]

Data set [2] can be described thus: Plasma drug exposure of three multi-drug lipid formulations vs free drug in primates. As to conditions: monkey, in vivo, sc, AUC Lipid Drug 0-168 h, LPV/EFV/TFV combination.
The conditions of data set [3]: cited from earlier work; for LogP: Tables 18 and 19; for Hydrophobicity (Log P): Tables 20 and 21.
The nature of data set [4]: % Drug association to particles by assembly method. Format: physicochemical. The text has this: Select one or two drugs hydrophilic and water soluble (Class 2) drugs listed in Table 19 (for example, tenofovir and/or emtricitabine and/or lamivudine). • 3. Select the excipient combination (for example, 9 parts DSPC and 1 part PEG-DSPE). • 4. Prepare a single-phase miscible solvent that enables full solubilization of the chosen water-insoluble Class 1 drugs and water soluble Class 2 drugs plus the excipients from step 3. Examples include CHCl3:Methanol:Water (65:35:4); CHCl3:Ethanol:Water (65:35:4); CHCl3:Propanol:Water (65:35:4); and CHCl3:Hexanol:Water (65:35:4). • 5. The components in Steps 1, 2 and 3 are solubilized with the miscible solvent in step 4. • 6. The drugs (steps 1 and 2) as well as excipients (step 3) and the miscible solvent (step 4) are dried under reduced pressure with assistance of a combination of heat, reduced pressure and/or aerosolization to provide for uniformity and efficiency of drying. • 7. The dehydrated composition is heated above gel-to-liquid phase transition temperature of the excipient mixture (e.g., 50° C.). • 8. A buffered saline solution is prepared and the temperature is equilibrated to the same temperature as dehydrated composition. • 9. The buffered saline solution and dehydrated composition are gradually combined and maintained at the defined (e.g., 50° C.) for 3 hr. • 10. The resulting hydrated multi-drug lipid nanoparticles are size-reduced by sheering or forcing through small orifice or pressurized filter apparatus while maintaining at the defined temperature (in liquid phase of lipidic excipients).

For data set [5] the following is noted: reported values; cited from earlier work.
The conditions of data set [6]: cited from earlier work.
Data set [7] can be described thus: Octanol-buffer distribution coefficient (shake-flask). Format: physicochemical. As to conditions: room temperature. On the procedure:
The octanol-buffer drug distribution coefficient at room temperature was determined by a small-scale, shake-flask method described by Dittert L W, et al. Phase Solubility Technique in Studying the Formation of Complex Salts of Triamterene. Journal of pharmaceutical sciences. […] Briefly, phosphate-buffered saline (PBS) at pH 3, 5, and 7.4 was used as the aqueous phase. […] The mixture was centrifuged at 14,000 rpm (18,078 g) (Beckman Coulter™ Microfuge® 18 centrifuge, Beckman Coulter Inc., Brea, Calif.) to separate octanol and the aqueous phase. The drug concentration in the two phases was determined with high-performance liquid chromatography tandem mass spectrometry (HPLC/MS/MS). The distribution coefficient was calculated as the ratio of the drug concentration in the octanol phase to the drug concentration in the aqueous phase. Triplicate samples were used at each pH.

The nature of data set [8]: Drug incorporation efficiency into lipid-drug nanoparticles (dialysis). The settings on record: for Incorporation efficiency (%) / Drug incorporation (% total): preclinical 45 mL scale. Format: physicochemical. On the procedure:
J Acquir Immune Defic Syndr. […] Journal of pharmaceutical sciences. […] The AAPS journal. […] Residual solvent was removed overnight by vacuum desiccation. The dried lipid-drug film was then rehydrated with 0.9% NaCl containing 20 mM sodium bicarbonate (pH 7.4). The lipid-drug samples were allowed to hydrate at 60° C. for 2 h. Then samples were sonicated (laboratory scale) or homogenized (preclinical scale) to achieve a homogenous suspension.
The incorporation efficiency was calculated as the ratio of the amount of incorporated drug over the total amount of drug loaded multiplied by 100%.

Data set [9] is described as follows: Particle size by photon correlation spectroscopy. Format: physicochemical. On the procedure: The mean particle size of lipid-drug nanoparticles and liposome control was determined by photon correlation spectroscopy (PCS) using a NICOMP™ 380ZLS instrument (NICOMP Particle Sizing Systems, Santa Barbara, Calif.). […] Samples were diluted with the same buffer to an identical final volume to analyze concentration effects. The light scattering data were analyzed based on intensity-weight NICOMP size distribution and expressed as a mean±SD.
Briefly, lipids and protease inhibitors were dissolved in chloroform:ethanol (3:1 v/v) and PMPA was added from a stock solution of 30 mg/ml in aqueous 150 mM NaHCO3. Solvent was removed by rotary evaporation and vacuum desiccation. The dry film was rehydrated to 200 mM lipid in 0.4% NaCl with 20 mM NaHCO3 buffer at 60° C. Particle size was reduced at 60° C. by bath sonication (laboratory scale) or high-pressure homogenization using an Emulsiflex-05 (Avestin, Ottawa, Canada) (clinical scale). LNPs were maintained at 60° C. to anneal for 30 min prior to cooling and stored at 4° C. Particle size was determined by photon correlation spectroscopy using a NICOMP 380 ZLS (Particle Sizing Systems, Santa Barbara, Calif.).

A short description of data set [10]: Plasma time course of ATV/RTV/TFV lipid nanoparticles in primates. Format: in vivo, Macaca nemestrina. The settings on record: male, Macaca nemestrina, in vivo, sc. On the procedure: All animal procedures were performed under an approved protocol reviewed by the University of Washington Institutional Animal Care and Use Committee. […] ATV, RTV, and TFV in the plasma were extracted in duplicate and analyzed with a liquid chromatography-mass spectrometry assay with a validated reverse phase HPLC/MS/MS method, similar to that of lopinavir (LPV), RTV, and TFV. […] Antimicrobial agents and chemotherapy. 2014. The linear trapezoidal method was used to calculate the area under the plasma drug concentration-time curve (AUC) for ATV, RTV, and TFV during the time course, which was close to 168 h post-dosing. […] All drugs in buffer and plasma were analyzed using a validated HPLC/MS/MS analytical method, capable of analyzing […], and TFV. The one-step analysis for LPV, RTV, and TFV was published previously. […] Antimicrobial agents and chemotherapy. 2014. Briefly, the HPLC system was outfitted with a Shimadzu 20AD HPLC (Shimadzu Scientific Instruments, Inc., Pleasanton, Calif.). […] Multiple reaction monitoring (MRM) was used to detect transition ions from a specific precursor ion to product ion. The analytes were detected using the following m/z transitions: 705.5/168.2 for ATV, 548.3/392.3 for DRV, 721.3/296.1 for RTV, 288.1/176 for TFV, and 238.1/193.2 for cyheptamide.

Structures are written as SMILES.

A word on the AUC: it is concentration integrated over time. In general, LogP refers to the decadic logarithm of the partition coefficient of the neutral form, usually between octanol and water. As for `O=C1Nc2ccc(Cl)cc2[C@@](C#CC2CC2)(C(F)(F)F)O1` [Efavirenz], in data set [1] (Combination 3, lipid:LPV:EFV:TFV 200:26.6:20:40, large scale), the “% particle-bound” value is “(78.7) %”. Further, the AUC in data set [2] was found to be 31200 ± 2700 ng·h/mL. Moreover, in [3], the LogP was 4 and the “Hydrophobicity (Log P)” value was 4. For the same compound, in [4], the “% Drug Association to Particles, LNPs from mixture of dual solvent method” value (“% Drug Association … of dual solvent method” for short) stood at 76% and the “% Drug Association to Particles, LNPs from single, miscible solvent method” value (shortened to “% Drug Association … miscible solvent method”) is given as 80-90%. Besides, in [5], the “% Drug Association to Particles, Liposomes” value was 80%. The “Water solubility @ 25° C.” value in data set [6] is 0.000093 µg/mL.
Turning to `C[C@@H]1CCO[C@H]2Cn3cc(C(=O)NCc4ccc(F)cc4F)c(=O)c(O)c3C(=O)N12` [Dolutegravir], the LogP in data set [3] is 2.4. Further, the “Water solubility @ 25° C.” value in data set [6] was 95 µg/mL.
For the compound `Cc1cc(/C=C/C#N)cc(C)c1Nc1ccnc(Nc2ccc(C#N)cc2)n1` [Rilpivirine], in data set [3], the “Hydrophobicity (Log P)” value is given as 4.5. Besides, in data set [4], the “% Drug Association … of dual solvent method” value was 75-76% and the “% Drug Association … miscible solvent method” value was 90-100%. For the same compound, the “% Drug Association to Particles, Liposomes” value in data set [5] was 14%. For the same compound, the “Water solubility @ 25° C.” value in [6] is 0.094 µg/mL.
Take `CC(C)(C)NC(=O)[C@@H]1CN(Cc2cccnc2)CCN1C[C@@H](O)C[C@@H](Cc1ccccc1)C(=O)N[C@H]1c2ccccc2C[C@H]1O` [Indinavir]: the LogP in data set [3] is on record as 2.3.
For `COC(=O)N[C@H](C(=O)N[C@@H](Cc1ccccc1)[C@@H](O)CN(Cc1ccc(-c2ccccn2)cc1)NC(=O)[C@@H](NC(=O)OC)C(C)(C)C)C(C)(C)C` [Atazanavir (ATV), Atazanavir], the “% particle-bound” value in data set [1] (Combination 2, lipid:ATZ:RTV:TFV 115:10:5:15, large scale) was “(91.9 ± 6.8) %”. Also, the “Log D (measured)” value in data set [7] (pH 3, octanol/PBS) is 3.40 ± 0.31; in data set [7] (pH 5, octanol/PBS) it was 4.66 ± 0.27; in data set [7] (pH 7.4, octanol/PBS), 5.77 ± 0.03. Besides, the “Hydrophobicity (Log P)” value in [3] was 5.6. For the same compound, the “Incorporation efficiency (%)” value in [8] (LNPs with ATV + RTV + TFV (2:1:3), laboratory 0.2 mL scale) came out at 104.2 ± 3.2%; in data set [8] (LNPs with ATV + RTV, laboratory scale, lipid:drug 8:1) it was 93.5 ± 6.6%; in data set [8] (LNPs with ATV, laboratory scale, lipid:drug 8:1), 100.5 ± 8.2%; in [8] (lipid:drug 5:1 mol/mol, DSPC:DSPE-mPEG2000 8:2), 96.5 ± 2.6%; in data set [8] (lipid:drug 8:1 mol/mol, DSPC:DSPE-mPEG2000 8:2), 96.2 ± 3.8%; in data set [8] (lipid:drug 20:1 mol/mol, DSPC:DSPE-mPEG2000 8:2) it was 97.4 ± 1.8%. For the same compound, the “Incorporation efficiency (%) / Drug incorporation (% total)” value in data set [8] (LNPs with ATV + RTV + TFV (2:1:3)) stood at 85.5 ± 8.2%; in data set [8] (LNPs with ATV + RTV + TFV (2:1:3), listed as atazanavir), 85.5±8.2%. Also, in data set [4], the “% Drug Association … of dual solvent method” value was 90-100%. The “% Drug Association … miscible solvent method” value in data set [4] is 90-100%. Also, the “Water solubility @ 25° C.” value in data set [6] was 0.11 µg/mL. Moreover, the figures for the “Particle size (nm)” value in [9] (lipid:drug 5:1 mol/mol), in data set [9] (lipid:drug 8:1 mol/mol) and in [9] (lipid:drug 20:1 mol/mol) were 68.2 ± 7.1 nm, 56.3 ± 4.1 nm and 34.6 ± 3.1 nm, respectively. For the same compound, the “AUC fraction (% total) 8-168 h” value in [10] is 95.3%.
Regarding `Nc1nc(=O)n([C@@H]2CS[C@H](CO)O2)cc1F` [Emtricitabine], in [3], the LogP is −2.4 and the “Hydrophobicity (Log P)” value is given as −1.4. For the same compound, in [4], the “% Drug Association … of dual solvent method” value was 3-10% and the “% Drug Association … miscible solvent method” value is listed as 78-80%. The “% Drug Association to Particles, Liposomes” value in data set [5] was 1-2%. Moreover, in data set [6], the “Water solubility @ 25° C.” value was 112000 µg/mL.
Consider `Cc1nnc(C(=O)NC(C)(C)c2nc(C(=O)NCc3ccc(F)cc3)c(O)c(=O)n2C)o1` [Raltegravir], for which the lipophilicity (LogP) in [3] is on record as −0.39. Also, in data set [4], the “% Drug Association … of dual solvent method” value is recorded as 9-25% and the “% Drug Association … miscible solvent method” value is 75-89%. For the same compound, in data set [6], the “Water solubility @ 25° C.” value is 100 µg/mL.
With `Nc1ccn([C@@H]2CS[C@H](CO)O2)c(=O)n1` [Lamivudine], in data set [4], the “% Drug Association … of dual solvent method” value was 10-30% and the “% Drug Association … miscible solvent method” value came out at 85%. Besides, the “% Drug Association to Particles, Liposomes” value in data set [5] is listed as 4-5%.
